In patent US6274715A, “Tricyclic erythromycin derivatives” (priority 1997, dated 2001):
Values after ≈ are worked out from the molar mass of the structure shown.

Assays:
Type in all cases: cell-based
[1] = test system: M[…] ATCC 9341; assay: In vitro antibacterial activity, MIC, BHI agar dilution; settings: M. luteus ATCC 9341, unit assumed
Method in brief: (§1)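 BHI agar dilution: twelve plates with successive compound dilutions, inoculated by replicator with 1:100 culture dilutions (1:10 for slow growers such as Micrococcus and Streptococcus), 20 to 24 hours at 35-37° C. MIC was the lowest concentration giving no growth, slight haze or sparse isolated colonies versus drug-free control; erythromycin A as class reference.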

[2] = test system: STR[…] 508; assay: as above; settings: S. agalactiae CMX 508, unit assumed
Method in brief: as §1

[3] = test system: EN[…] ATCC 8043; assay: as above; settings: E. faecium ATCC 8043, unit assumed
Method in brief: as §1

[4] = test system: M[…] ATCC 4698; assay: as above; settings: M. luteus ATCC 4698, unit assumed
Method in brief: as §1

[5] = test system: STAPHYLOCOCCUS AUREUS A-5278; assay: as above; settings: S. aureus A-5278, unit assumed
[6] = test system: STREPTOCOCCUS BOVIS A-5169; assay: as above; settings: S. bovis A-5169, unit assumed
[7] = test system: STAPHYLOCOCCUS AUREUS CMX 642A; assay: as above; settings: S. aureus CMX 642A, unit assumed
[8] = test system: ACINETOBACTER CALCOACETICUS CMX 669; assay: as above; settings: A. calcoaceticus CMX 669, unit assumed
[9] = test system: STAPHYLOCOCCUS AUREUS 1775; assay: as above; settings: S. aureus 1775, unit assumed
[10] = test system: ESCHERICHIA COLI KNK 437; settings: E. coli KNK 437; BHI agar; unit assumed
[11] = test system: ESCHERICHIA COLI H560; assay: In vitro antibacterial activity, MIC, BHI agar dilution; settings: E. coli H560, unit assumed
[12] = test system: STAPHYLOCOCCUS AUREUS NCTC10649M; assay: as above; settings: S. aureus NCTC10649M, unit assumed
[13] = test system: PSEUDOMONAS AERUGINOSA DPHD-5263; assay: as above; settings: P. aeruginosa DPHD-5263, unit assumed
[14] = test system: STAPHYLOCOCCUS AUREUS ATCC 6538P; assay: as above; settings: S. aureus ATCC 6538P, 35-37° C., 20 to 24 hours, unit assumed
[15] = test system: KLEBSIELLA PNEUMONIAE ATCC 8045; assay: as above; settings: K. pneumoniae ATCC 8045, unit assumed
[16] = test system: MYCOBACTERIUM SMEGMATIS ATCC 114; assay: as above; settings: M. smegmatis ATCC 114, unit assumed
[17] = test system: STAPHYLOCOCCUS AUREUS A5177; assay: as above; settings: S. aureus A5177, unit assumed
[18] = test system: PSEUDOMONAS AERUGINOSA DPHD-2862; assay: as above; settings: P. aeruginosa DPHD-2862, unit assumed
[19] = test system: ESCHERICHIA COLI SS; assay: as above; settings: E. coli SS, unit assumed
[20] = test system: STAPHYLOCOCCUS EPIDERMIDIS 3519; settings: S. epidermidis 3519; BHI agar; unit assumed
[21] = test system: PSEUDOMONAS AERUGINOSA 5007; assay: In vitro antibacterial activity, MIC, BHI agar dilution; settings: P. aeruginosa 5007, unit assumed
[22] = test system: PSEUDOMONAS CEPACIA 296I; assay: as above; settings: P. cepacia 296I, unit assumed
[23] = test system: PSEUDOMONAS AERUGINOSA K799/WT; assay: as above; settings: P. aeruginosa K799/WT, unit assumed
[24] = test system: CANDIDA ALBICANS CCH 442; assay: as above; settings: C. albicans CCH 442, unit assumed
[25] = test system: STAPHYLOCOCCUS AUREUS CMX 553; assay: as above; settings: S. aureus CMX 553, unit assumed
[26] = test system: H. Influenza Dill AMP R; assay: In vitro antibacterial activity against H. Influenza Dill AMP R, MIC; settings: separate assay, unit assumed
Method in brief: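 Agar dilution in Brain Heart Infusion agar, twelve successive compound dilutions, inoculated by Steers replicator with 1:100 (1:10 for slow growers) culture dilutions. Incubation 35-37° C. for 20 to 24 hours; MIC is lowest concentration giving no growth, slight haze or sparse colonies versus drug-free control.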

[27] = test system: PSEUDOMONAS AERUGINOSA K799/61; assay: In vitro antibacterial activity, MIC, BHI agar dilution; settings: P. aeruginosa K799/61, unit assumed
[28] = test system: STREPTOCOCCUS PYOGENES PIU 2548; assay: as above; settings: S. pyogenes PIU 2548, unit assumed
[29] = test system: STREPTOCOCCUS PYOGENES 930; assay: as above; settings: S. pyogenes 930, unit assumed
[30] = test system: ESCHERICHIA COLI DC-2; assay: as above; settings: E. coli DC-2, unit assumed
[31] = test system: STREPTOCOCCUS PYOGENES EES61; assay: as above; settings: S. pyogenes EES61, unit assumed
[32] = test system: PSEUDOMONAS AERUGINOSA BMH10; assay: as above; settings: P. aeruginosa BMH10, unit assumed
[33] = test system: ENTEROBACTER AEROGENES ATCC 13048; assay: as above; settings: E. aerogenes ATCC 13048, unit assumed
[34] = test system: PROVIDENCIA STUARTII CMX 640; settings: P. stuartii CMX 640; BHI agar; unit assumed
[35] = test system: ESCHERICHIA COLI JUHL; settings: E. coli JUHL; BHI agar; unit assumed

SMILES | MIC [1] | MIC [2] | MIC [3] | MIC [4] | MIC [5] | MIC [6] | MIC [7] | MIC [8] | MIC [9] | MIC [10] | MIC [11] | MIC [12] | MIC [13] | MIC [15] | MIC [16] | MIC [17] | MIC [18] | MIC [19] | MIC [20] | MIC [21] | other results
CC[C@H]1OC(=O)[C@H](C)C(=O)[C@H](C)[C@@H](O[C@@H]2O[C@H](C)C[C@H](N(C)C)[C@H]2O)[C@](C)(OC)C[C@@H](C)C2=N[C@@H]3COC[C@@H]3N3C(=O)O[C@@]1(C)[C@H]3[C@H]2C [Example 18] | 0.05 µg/mL (≈ 0.0735 µM) | 0.05 µg/mL (≈ 0.0735 µM) | 0.1 µg/mL (≈ 0.147 µM) | 0.78 µg/mL (≈ 1.15 µM) | > 100 µg/mL | 0.05 µg/mL (≈ 0.0735 µM) | 0.78 µg/mL (≈ 1.15 µM) | > 100 µg/mL | > 100 µg/mL | > 100 µg/mL | > 100 µg/mL | 0.78 µg/mL (≈ 1.15 µM) | > 100 µg/mL | > 100 µg/mL | 3.1 µg/mL (≈ 4.56 µM) | 0.78 µg/mL (≈ 1.15 µM) | > 100 µg/mL | 0.78 µg/mL (≈ 1.15 µM) | 0.78 µg/mL (≈ 1.15 µM) | > 100 µg/mL | MIC [14]: 0.39 µg/mL (≈ 0.574 µM); MIC [22]: > 100 µg/mL; MIC [23]: > 100 µg/mL; MIC [24]: > 100 µg/mL; MIC [25]: 0.78 µg/mL (≈ 1.15 µM); MIC [26]: 8 µg/mL (≈ 11.8 µM); MIC [27]: 6.2 µg/mL (≈ 9.12 µM); MIC [28]: 0.39 µg/mL (≈ 0.574 µM); MIC [29]: > 100 µg/mL; MIC [30]: > 100 µg/mL; MIC [31]: 0.05 µg/mL (≈ 0.0735 µM); MIC [32]: > 100 µg/mL; MIC [33]: > 100 µg/mL; MIC [34]: > 100 µg/mL
CC[C@H]1OC(=O)[C@H](C)C(=O)[C@H](C)[C@@H](O[C@@H]2O[C@H](C)C[C@H](N(C)C)[C@H]2O)[C@](C)(OC)C[C@@H](C)C2=N[C@@H]3CNC[C@@H]3N3C(=O)O[C@@]1(C)[C@H]3[C@H]2C [Example 19] | 0.1 µg/mL (≈ 0.147 µM) | 0.05 µg/mL (≈ 0.0737 µM) | 0.05 µg/mL (≈ 0.0737 µM) | 0.2 µg/mL (≈ 0.295 µM) | > 100 µg/mL | 0.005 µg/mL (≈ 0.00737 µM) | 0.39 µg/mL (≈ 0.574 µM) | 6.2 µg/mL (≈ 9.13 µM) | > 100 µg/mL | 6.2 µg/mL (≈ 9.13 µM) | 3.1 µg/mL (≈ 4.57 µM) | 0.39 µg/mL (≈ 0.574 µM) | > 100 µg/mL | 12.5 µg/mL (≈ 18.4 µM) | 3.1 µg/mL (≈ 4.57 µM) | 0.39 µg/mL (≈ 0.574 µM) | > 100 µg/mL | 0.2 µg/mL (≈ 0.295 µM) | 0.39 µg/mL (≈ 0.574 µM) | > 100 µg/mL | MIC [14]: 0.39 µg/mL (≈ 0.574 µM); MIC [22]: > 100 µg/mL; MIC [35]: 12.5 µg/mL (≈ 18.4 µM); MIC [23]: > 100 µg/mL; MIC [24]: > 100 µg/mL; MIC [25]: 0.39 µg/mL (≈ 0.574 µM); MIC [26]: 16 µg/mL (≈ 23.6 µM); MIC [27]: 0.39 µg/mL (≈ 0.574 µM); MIC [28]: 0.78 µg/mL (≈ 1.15 µM); MIC [29]: > 100 µg/mL; MIC [30]: 6.2 µg/mL (≈ 9.13 µM); MIC [31]: 0.05 µg/mL (≈ 0.0737 µM); MIC [32]: 50 µg/mL (≈ 73.7 µM); MIC [33]: 12.5 µg/mL (≈ 18.4 µM); MIC [34]: > 100 µg/mL
CC[C@H]1OC(=O)[C@H](C)C(=O)[C@H](C)[C@@H](O[C@@H]2O[C@H](C)C[C@H](N(C)C)[C@H]2O)[C@](C)(OC)C[C@@H](C)C2=NC3CN(C(C)=O)CC3N3C(=O)O[C@@]1(C)[C@H]3[C@H]2C (stereo partly drawn) [Example 125] | 0.78 µg/mL (≈ 1.08 µM) | 0.39 µg/mL (≈ 0.541 µM) | 1.56 µg/mL (≈ 2.16 µM) | 6.2 µg/mL (≈ 8.6 µM) | > 100 µg/mL | 0.2 µg/mL (≈ 0.277 µM) | 12.5 µg/mL (≈ 17.3 µM) | 100 µg/mL (≈ 139 µM) | > 100 µg/mL | > 100 µg/mL | > 100 µg/mL | 6.2 µg/mL (≈ 8.6 µM) | > 100 µg/mL | > 100 µg/mL | 50 µg/mL (≈ 69.4 µM) | 6.2 µg/mL (≈ 8.6 µM) | > 100 µg/mL | 0.78 µg/mL (≈ 1.08 µM) | 6.2 µg/mL (≈ 8.6 µM) | > 100 µg/mL | MIC [22]: > 100 µg/mL; MIC [35]: > 100 µg/mL; MIC [23]: > 100 µg/mL; MIC [24]: > 100 µg/mL; MIC [25]: 6.2 µg/mL (≈ 8.6 µM); MIC [26]: 128 µg/mL (≈ 178 µM); MIC [27]: 6.2 µg/mL (≈ 8.6 µM); MIC [29]: > 100 µg/mL; MIC [30]: > 100 µg/mL; MIC [31]: 0.1 µg/mL (≈ 0.139 µM); MIC [32]: > 100 µg/mL; MIC [33]: > 100 µg/mL; MIC [34]: > 100 µg/mL
